Measured values taken from patent US20190375764A1, “SALTS OF A HETEROCYCLIC COMPOUND AND CRYSTALLINE FORMS, PROCESSES FOR PREPARING, THERAPEUTIC USES, AND PHARMACEUTICAL COMPOSITIONS THEREOF” (Sunovion Pharmaceuticals Inc., priority 2018, published 2019).
Entries after “also recorded” stand apart in the source; their conditions may differ. Each block holds one molecule with its values, some of them ahead of it.

Tests used:
Format in all cases: physicochemical
[1] = Dynamic vapor sorption (DVS) moisture sorption isotherm; details: for hygroscopicity: result of DVS, in words
Description: DVS moisture sorption isotherms were generated using a Hiden Analytical IGA-sorp moisture sorption analyzer. Samples were run as received without pre-analysis drying. Each sample was equilibrated between about 30 and 120 minutes at each relative humidity (RH) step. Temperature was fixed at about 25° C. and the relative humidity steps (0 to 95% RH) were in 5-10% increments. Sample sizes ranged from 3 to 30 mg. After DVS measurement, XRPD was measured in order to check the solid form. Dynamic Vapor sorption (DVS) moisture sorption isotherms were generated using IGA-sorp moisture sorption analyzer (Hiden Analytical). Sample measurements were run without drying before analyses. XRPD was measured in order to check any changes of the solid form after the moisture sorption/desorption. The measurement condition is shown below: • Time at each RH steps: From 30 to 120 minutes • Relative humidity steps: 5 or 10% steps • Temperature: 25° C.

[2] = Temperature controlled XRPD (crystal form on heating); details: heating up to melting
Description: Temperature controlled XRPD was measured by the X'pert-MPD with an Anton Paar TCU 100 Temperature Control Unit. Sample was measured from 30° C. to 250° C. or 270° C. with 10° C. increments. Measurement conditions were as follows: range: 4-30°, step: 0.017°, time per step: 100 s.
FT-Raman, XRPD, DSC, TGA, and DVS instruments and techniques are similar to those in Example 3. Temperature controlled XRPD was measured by X'pert-Pro MPD (Spectris) with TCU 100 Temperature Control Unit (Anton Paar). The temperature of the sampling stage was increased step by step as programmed and XRPD patterns of sample were measured at each step. The measurement condition is shown below: • Range angle: From 4 to 30° • Step size: 0.017° • Time per step: 100 s

[3] = Crystal form stability on humidity, storage and drying (XRPD / FT-Raman); details: for crystal form before and after DVS measurement (XRPD): moisture sorption/desorption
Description: DVS moisture sorption isotherms were generated using a Hiden Analytical IGA-sorp moisture sorption analyzer. Samples were run as received without pre-analysis drying. Each sample was equilibrated between about 30 and 120 minutes at each relative humidity (RH) step. Temperature was fixed at about 25° C. and the relative humidity steps (0 to 95% RH) were in 5-10% increments. Sample sizes ranged from 3 to 30 mg. After DVS measurement, XRPD was measured in order to check the solid form. FT-Raman analyses were performed by using MultiRAM (Bruker Optics). Each suspension or dry powder sample was measured from out of glass vial. The measurement condition is shown below: • Excitation wavelength: 1064 nm • Laser power: 500 mW • Wavenumber: 4 cm^−1 • Sample scan: 128 times X-ray Powder Diffraction (XRPD) spectra were obtained by X'pert Pro MPD (Spectris). X-rays was generated with Cu Kα radiation. The powder samples were put on the reflection free sample plate. The XRPD patterns were analyzed by HighScorePlus. The measurement condition is shown below: • Range angle: From 4 to 30°, to 40° and to 65° (2θ) • Step size: 0.017° • Time per step: 100 s Dynamic Vapor sorption (DVS) moisture sorption isotherms were generated using IGA-sorp moisture sorption analyzer (Hiden Analytical). Sample measurements were run without drying before analyses. XRPD was measured in order to check any changes of the solid form after the moisture sorption/desorption. The measurement condition is shown below: • Time at each RH steps: From 30 to 120 minutes • Relative humidity steps: 5 or 10% steps • Temperature: 25° C.

[4] = humidity increased from 0% RH to 95% RH

Compound: CNC[C@H]1OCCn2nc3ccccc3c21.O=C(O)/C=C/C(=O)O [Form FA, (R)-1-(3,4-dihydro-1H-[1,4]oxazino[4,3-b]indazol-1-yl)-N-methylmethanamine fumarate]
transformation of crystal form, temperature controlled XRPD [2]: not transformed to any other polymorph

Compound: CNC[C@H]1OCCn2nc3ccccc3c21.O=C(O)/C=C/C(=O)O [Form FB, (R)-1-(3,4-dihydro-1H-[1,4]oxazino[4,3-b]indazol-1-yl)-N-methylmethanamine fumarate]
weight gain (DVS) ([1]; at over 75% RH): about 5%
crystal form after storage under humidity ([3]; 75% RH overnight (NaCl water suspension)): Form FA was observed
crystal form under dry condition or heated ([3]; dry condition or heated, quickly transformed back to hydrous form in the air): anhydrous form can be obtained

Compound: CNC[C@H]1OCCn2nc3ccccc3c21.Cl [Form HB, (R)-1-(3,4-dihydro-1H-[1,4]oxazino[4,3-b]indazol-1-yl)-N-methylmethanamine hydrochloride]
crystal form stability on isolation ([3]; observed only in a suspension state, filtrated and dried, hydrochloride): transformed to Form HC or Form HA; also recorded: Not stable

Compound: CNC[C@H]1OCCn2nc3ccccc3c21.O=C(O)/C=C/C(=O)O [fumarate, (R)-1-(3,4-dihydro-1H-[1,4]oxazino[4,3-b]indazol-1-yl)-N-methylmethanamine fumarate]
hygroscopicity [1]: no hygroscopicity

Further lines, with some results ahead:

weight gain (DVS) ([1]; at 90% RH, another batch of Form BA): about 1%
weight gain (DVS) ([1]; at 90% RH, one batch of Form BA): about 2%
weight gain (DVS) ([1]; at 95% RH): about 2%
weight gain (DVS) ([1]; at 95% RH, another batch of Form BA): about 2%
weight gain (DVS) ([1]; at 95% RH, one batch of Form BA): about 8%
hygroscopicity ([1]; listed as besylate, benzenesulfonate): less hygroscopicity
transformation of crystal form, temperature controlled XRPD [2]: not transformed to any other polymorph
Compound: CNC[C@H]1OCCn2nc3ccccc3c21.O=S(=O)(O)c1ccccc1 [Form BA, (R)-1-(3,4-dihydro-1H-[1,4]oxazino[4,3-b]indazol-1-yl)-N-methylmethanamine benzenesulfonate]
hygroscopicity ([1]; benzenesulfonate): less hygroscopicity; also recorded: good hygroscopicity behavior

weight gain (DVS) ([1]; at 95% RH): over 100%
hygroscopicity ([1]; hydrochloride): Highly hygroscopic
Compound: CNC[C@H]1OCCn2nc3ccccc3c21.Cl [Form HA, (R)-1-(3,4-dihydro-1H-[1,4]oxazino[4,3-b]indazol-1-yl)-N-methylmethanamine hydrochloride]
crystal form before and after DVS measurement (XRPD) ([3]; hydrochloride): transformed to Form HC mixed with an unidentified polymorph

weight gain (DVS) ([1]; between 60% RH and 70% RH (Form HC transformed to Form HD)): 6.5%
weight gain (DVS) [1, 4]: 9.3%
hygroscopicity ([1]; hydrochloride): hygroscopic
crystal form after storage at high-humid condition (Raman) ([3]; 75% RH for 1 day, saturated sodium chloride water): transformed to Form HD
crystal form transformation ([3]; humidity level of more than 70% RH): Transformed to Form D
crystal form before and after DVS measurement (XRPD) ([3]; hydrochloride): basically stable
Compound: CNC[C@H]1OCCn2nc3ccccc3c21.Cl [Form HC, (R)-1-(3,4-dihydro-1H-[1,4]oxazino[4,3-b]indazol-1-yl)-N-methylmethanamine hydrochloride]

crystal form transformation ([3]; at room temperature): Transformed to Form C
Compound: CNC[C@H]1OCCn2nc3ccccc3c21.Cl [Form HD, (R)-1-(3,4-dihydro-1H-[1,4]oxazino[4,3-b]indazol-1-yl)-N-methylmethanamine hydrochloride]

weight gain (DVS) ([1]; at 95% RH): about 1%
weight gain (DVS) [1, 4]: ~1%
hygroscopicity ([1]; listed as Tosylate, tosylate): less hygroscopicity
hygroscopicity ([1]; listed as tosylate, tosylate): less hygroscopicity
crystal form before and after DVS measurement (XRPD) [3]: no changes of the crystal form
Compound: CNC[C@H]1OCCn2nc3ccccc3c21.Cc1ccc(S(=O)(=O)O)cc1 [Form TA, (R)-1-(3,4-dihydro-1H-[1,4]oxazino[4,3-b]indazol-1-yl)-N-methylmethanamine tosylate]
hygroscopicity ([1]; tosylate): less hygroscopicity; also recorded: good hygroscopicity behavior; also recorded: non-hygroscopicity
transformation of crystal form, temperature controlled XRPD ([2]; tosylate): not transformed to any other polymorph; also recorded: stable in terms of the crystal form and not transformed to another form until the melting point
